Experimental data from patent US20040096456A1, “Method to treat hemophilia” (priority 2003, published 2004).

How the values were obtained:
CD4^+ splenocytes = experiment: Proliferation assay of CD4+ splenocytes from hemophilia A mice exposed to human fVIII; format: cell-based, mouse; conditions: for proliferative response, ^3H-thymidine incorporation (FIG. 2): CD4^+ splenocytes from hemophilia A mice immunized with human fVIII, representative experiment; for proliferative response of pooled CD4^+ splenocytes: hemophilia A mice immunized by multiple subcutaneous injections of 5-10 μg recombinant human fVIII in Freund's adjuvant, four independent groups
Procedure: Mice were treated up to 10 times intravenously with 1 μg of purified recombinant human fVIII. CD8^+ depleted spleen cells (so as to leave only CD4^+ T cells; hereafter referred to as “CD4^+ splenocytes”) were used in proliferation assays to test the response to increasing concentrations of fVIII (5-20 nM) and to pools of overlapping synthetic peptides, spanning the sequence of the individual the fVIII domains (fVIII domain pools). Also, the cytokines secreted by CD4^+ splenocytes, after challenge in vitro with fVIII, were determined. The anti-fVIII antibody was measured in the sera as well as their IgG subclass (by ELISA). The inhibitors were measured by the Bethesda assay (Kasper et al., 1975).
Epitope Repertoire on Human fVIII Recognized be CD4^+ Cells from Hemophilia A Mice. The epitope repertoire of the CD4^+ cells sensitized to human fVIII in hemophilia A mice was examined. Mice were immunized by multiple subcutaneous injections of 5-10 μg recombinant human fVIII, emulsified in Freund's adjuvant. This ensured a stronger sensitization of the CD4^+ cells than that obtained after intravenous administration of fVIII. The use of CD4+ splenocytes from mice strongly sensitized to fVIII increases the chances of identifying a comprehensive CD4^+ repertoire, because the CD4^+ cells recognizing individual epitopes on an antigen are scarce among unselected CD4^+ splenocytes.
Four independent groups of 2 to 4 hemophilia A mice were immunized. For each group their CD4^+ splenocytes were pooled, and tested for their proliferative response to fVIII, and to the individual synthetic peptides spanning the sequence of human fVIII. Because of the large number of peptides, all the peptides were tested only in one experiment. In two experiments, peptides spanning the A and C domains were tested. In a fourth experiment, only peptides spanning the Al domain were tested.

CD4^+ blood lymphocytes = experiment: 5 day proliferation assay of CD4+ blood lymphocytes with individual A3 and C2 peptides; format: cell-based, human; conditions: for individual A3 peptides recognized by both patients (FIG. 4): hemophilia A patients with inhibitors # 5 and # 8, peptide 2 μg
Excerpt: Subiects. Six HIV negative severe hemophilia A patients (3 with inhibitors and 3 without), 4 acquired hemophilia patients (Table 4) and 6 healthy subjects (3 men and 3 women, 34-48 years old) were studied. The acquired hemophilia patients had not received fVIII during the period of time when we studied their CD4^+ response to the fVIII peptides. Among hemophilia A patients, patient #8 had received immune tolerance therapy with high doses of fVIII. The last high dose of fVIII administered as part of the immune tolerance therapy was given approximately 8 months before the first experiment reported here. […] Patient #9 received a prophylactic regimen of weekly injections of standard therapeutic doses of fVIII. All other patients were self treated on an as needed basis. In several hemophilic and healthy subjects we tested the response of CD4^+ blood lymphocytes to fVIII peptides on more than one occasion, at intervals that ranged from a few weeks to several months.
Peripheral blood mononuclear cells (PBMC) were isolated from venous blood and depleted them of CD8^+ T cells (Manfredi et al., 1993), using anti-human CD8 antibody (OKT8; Ortho Diagnostic Systems, Raritan, N.J. or Ancell, Bayport, Minn.) and paramagnetic beads coated with goat anti-mouse IgG antibody (PerSeptive Biosystems, Framingham, Mass.). The CD8^+ depleted PBMC (CD4^+ blood lymphocytes) were used for 5 day proliferation assays (Manfredi et al., […]), using sextuplet wells (2×10^5 cells/well; when cell yield was low, a minimum of 1×10^5 cells/well) and the following stimulants: phytohemagglutinin (Sigma; 10 μg/mL), T cell growth factor (Lymphocult; Biotest Diagnostic Corp., Danville, NJ; final concentration of interleukin 2, 10 U/mL), recombinant human fVIII (Baxter, Glendale, Calif. or Bayer, Elkhart, Ind.; 0.5-1 units/mL; normal plasma concentration: I unit/mL), and the synthetic fVIII peptides, both individually and in pools as described above (final concentration 2 μg/mL of each peptide). Sextuplet wells cultured without any stimulus provided the basal proliferation rate of the cells. We measured cell proliferation from the incorporation of ^3H-thymidine (1 μCi per well, specific activity 6.7 Ci/mmol; Dupont-NEN, Boston, Mass.), expressed as counts per minute (cpm). When an antigen induced a statistically significant (p<0.05) increase in proliferation (assessed using a two-tailed Student's t test), we calculated the stimulation index (SI: ratio between average cpm of cultures in the presence of the antigen and average basal proliferation of the same cells). The use of SI normalizes results, and allows comparison of experiments carried out at different times, and with different subjects.

[1] = healthy subject #8, second experiment

521-540: 20-residue synthetic peptide, residues 521-540 of the A2 domain of human fVIII (PTKSDPRCLTRYYSSFVNME; UniProt P00451 540-559, looked up, fragment)
proliferative response, ^3H-thymidine incorporation (FIG. 2) (CD4^+ splenocytes): recognized

531-550: 20-residue synthetic peptide, residues 531-550 of the A2 domain of human fVIII (RYYSSFVNMERDLASGLIGP; UniProt P00451 550-569, looked up, fragment)
proliferative response, ^3H-thymidine incorporation (FIG. 2) (CD4^+ splenocytes): recognized

2141-2160: 20-residue synthetic peptide, residues 2141-2160 of the C1 domain of human fVIII (NPPIIARYIRLHPTHYSIRS; UniProt P00451 2160-2179, looked up, fragment)
proliferative response of pooled CD4^+ splenocytes (CD4^+ splenocytes): recognized clearly and consistently in all or most experiments

AEPRKNFVKPNETKTYFWKV (listed as Homo sapiens) [1801-1820]
individual A3 peptides recognized by both patients (FIG. 4) (CD4^+ blood lymphocytes): recognized also by patient # 8

CLIGEHLHAGMSTLFLVYSN (listed as Homo sapiens) [2001-2020]
A3 peptides that elicited the strongest response of CD4^+ lymphocytes (CD4^+ blood lymphocytes; Hemophilia A without Inhibitors, Patient 9, t = 1): 2001-2020

DLNSCSMPLGMESKAISDAQ (listed as Homo sapiens) [peptide 2171-2190]
recognition by CD4^+ cells (CD4^+ blood lymphocytes; patient # 8, hemophilia A with inhibitors, C2 peptides): recognized

FATWSPSKARLHLQGRSNAW (listed as Homo sapiens) [peptide 2201-2220]
proliferative response, ^3H-thymidine incorporation (FIG. 2) (CD4^+ splenocytes): recognized
proliferative response of pooled CD4^+ splenocytes (CD4^+ splenocytes): recognized clearly and consistently in all or most experiments

FDCKAWAYFSDVDLEKDVHS (listed as Homo sapiens) [1831-1850]
A3 peptides that elicited the strongest response of CD4^+ lymphocytes (CD4^+ blood lymphocytes; Acquired Hemophilia, Patient 1, t = 2): 1831-1850
recognition by CD4^+ cells (CD4^+ blood lymphocytes; patients #1 and #2 (acquired hemophilia), in some experiments): recognized

FTPVVNSLDPPLLTRYLRIH (listed as Homo sapiens) [2291-2310]
C2 peptides that elicited the strongest response of CD4^+ lymphocytes (CD4^+ blood lymphocytes; Healthy Subjects, Subject 9, t = 1): 2291-2310

GLIGPLLVCHTNTLNPAHGR (listed as Homo sapiens) [1851-1870]
proliferative response, ^3H-thymidine incorporation (FIG. 2) (CD4^+ splenocytes): recognized

GMSSSPHVLRNRAQSGSVPQ (listed as Homo sapiens) [1711-1730]
recognition by CD4^+ cells (CD4^+ blood lymphocytes; healthy subject #2): recognized

IAAVERLWDYGMSSSPHVLR (listed as Homo sapiens) [peptide 1701-1720]
recognition by CD4^+ cells (CD4^+ blood lymphocytes; [1]): recognized strongly
recognition by CD4^+ cells (CD4^+ blood lymphocytes; patient #2, another experiment): recognized
recognition by CD4^+ cells (CD4^+ blood lymphocytes; patient #8, another experiment): recognized
proliferative response, ^3H-thymidine incorporation (FIG. 2) (CD4^+ splenocytes): recognized
proliferative response of pooled CD4^+ splenocytes (CD4^+ splenocytes): recognized clearly and consistently in all or most experiments

LHLQGRSNAWRPQVNNPKEW (listed as Homo sapiens) [2211-2230]
C2 peptides that elicited the strongest response of CD4^+ lymphocytes (CD4^+ blood lymphocytes; Hemophilia A without Inhibitors, Patient 9, t = 2): 2211-2230

MESKAISDAQITASSYFTNM (listed as Homo sapiens) [2181-2200]
C2 peptides that elicited the strongest response of CD4^+ lymphocytes (CD4^+ blood lymphocytes; Hemophilia A with Inhibitors, Patient 6, t = 1): 2181-2200

NENIHSIHFSGHVFTVRKKE (listed as Homo sapiens) [1951-1970]
individual A3 peptides recognized by both patients (FIG. 4) (CD4^+ blood lymphocytes): recognized also by patient # 8

SFQKKTRHYFIAAVERLWDY (listed as Homo sapiens) [peptide 1691-1710]
experiments in which the peptide (or one or more peptides of the sequence region) was recognized (CD4^+ blood lymphocytes; 8 experiments done with CD4^+ cells from healthy subjects): 7 of the 8
number of acquired hemophilia patients who recognized the peptide or region (CD4^+ blood lymphocytes; acquired hemophilia patients, not consistent between experiments of the same patient): 1
recognition by CD4^+ cells (CD4^+ blood lymphocytes; healthy subject #2): did not recognize
number of hemophilia A patients who strongly recognized the peptide (CD4^+ blood lymphocytes; hemophilia A patients with inhibitors): 2
number of hemophilia A patients who strongly recognized the peptide (CD4^+ blood lymphocytes; hemophilia A patients without inhibitors): 1
number of hemophilia A patients who strongly recognized the peptide (CD4^+ blood lymphocytes; hemophilia A patients, in only one of the experiments of the same patient): 3
recognition by CD4^+ cells (CD4^+ blood lymphocytes; patient #8, one experiment): recognized

VEMKKEDFDIYDEDENQSPR (listed as Homo sapiens) [1671-1690]
recognition by CD4^+ cells (CD4^+ blood lymphocytes; patient #8, another experiment): recognized

YDEDENQSPRSFQKKTRHYF (listed as Homo sapiens) [1681-1700]
recognition by CD4^+ cells (CD4^+ blood lymphocytes; [1]): recognized strongly

peptide 71-90: 20-residue synthetic peptide, residues 71-90 of the A1 domain of human fVIII (LLGPTIQAEVYDTVVITLKN; UniProt P00451 90-109, looked up, fragment)
proliferative response of pooled CD4^+ splenocytes (CD4^+ splenocytes): recognized clearly and consistently in all or most experiments

peptide 601-620: 20-residue synthetic peptide, residues 601-620 of the A2 domain of human fVIII (VQLEDPEFQASNIMHSINGY; UniProt P00451 620-639, looked up, fragment)
proliferative response, ^3H-thymidine incorporation (FIG. 2) (CD4^+ splenocytes): recognized
proliferative response of pooled CD4^+ splenocytes (CD4^+ splenocytes): recognized clearly and consistently in all or most experiments

peptide 2131-2150: 20-residue synthetic peptide, residues 2131-2150 of the C1 domain of human fVIII (DSSGIKHNIFNPPIIARYIR; UniProt P00451 2150-2169, looked up, fragment)
proliferative response, ^3H-thymidine incorporation (FIG. 2) (CD4^+ splenocytes): recognized
proliferative response of pooled CD4^+ splenocytes (CD4^+ splenocytes): recognized clearly and consistently in all or most experiments
